Data reported in article PMC7195821 (Cell Discovery, 2020).
Where a name gives a salt, the structure may show the parent alone.

Tests used:
SARS-CoV-2 [1] = conditions: cited from earlier work
SARS-CoV-2 [2] = experiment: Antiviral activity against SARS-CoV-2 in Vero E6 cells, qRT-PCR of virus yield in supernatant at 48 h p.i.; type: cell-based; conditions: for anti-SARS-CoV-2 activity (in words): up to the highest drug concentrations; for EC50: Severe acute respiratory syndrome coronavirus 2, Vero C1008, 48 h, read-out: 50% maximal effective concentration (EC50)
[3] = Cytotoxicity by cell counting kit-8 (CCK8) assay; conditions: African green monkey
SARS-CoV = conditions: cited from earlier work
SARS-CoV-2 binding = experiment: Virus binding assay on Vero E6 cells at 4 °C, qRT-PCR; type: cell-based; conditions: arbidol 10 μM, 4 °C for 1 h, MOI 0.05, P < 0.001
influenza viruses = conditions: read-out: EC50 against different influenza viruses; cited from earlier work
[4] = humans, single oral administration of 800 mg; cited from earlier work
SARS-CoV-2 [5] = experiment: Time-of-addition experiment, virus yield by qRT-PCR; type: cell-based
Protocol: The antiviral efficacy was evaluated in Vero E6 cells by qRT-PCR analysis of virus yield at 48 h p.i. Data represent the mean ± standard deviation (SD) from two independent repeats. b, c Time-of-addition experiment of arbidol. Three experimental groups (Full-time, Entry, and Post-entry) were set up as described in the Supplementary Methods. At 16 h p.i., virus yield in the cell supernatant was quantified by qRT-PCR (b), and the expression of NP in infected cells was analyzed by western blots (c). […] The co-localization of virions with EEs or LEs was analyzed by immunofluorescence assays as described in the Supplementary Methods. e The portion of virions that co-localized with EEs or ELs in each group (n > 150 cells) was quantified by Image J. f Representative confocal microscopic images of virions (red) and LAMP1^+ ELs (green) in each group. The nuclei (blue) were stained with Hoechst 33258 dye. White arrows: virions co-localized with ELs; bars: 10 μm. […] For (d), statistical analysis was performed and calculated by unpaired two-tailed t test. *P < 0.05; ***P < 0.001; ns, not significant.
Arbidol was incubated with cells during the virus entry process (Entry), the post-entry stages (Post-entry), or the entire process of infection (Full-time) and progeny virus yield was quantified by qRT-PCR. […]
At 16 h p.i., virus production in the culture supernatants was quantified by qRT -PCR.

SARS-CoV-2 [6] = experiment: Cytopathic effects (CPE) and immunofluorescence staining of infected cells; type: cell-based; conditions: Vero E6 cells, 48 h p.i., MOI 0.05
SARS-CoV-2 NP expression = experiment: Time-of-addition experiment, viral NP expression by western blot; type: cell-based; conditions: arbidol 10 μM, 16 h p.i.
Protocol: The antiviral efficacy was evaluated in Vero E6 cells by qRT-PCR analysis of virus yield at 48 h p.i. Data represent the mean ± standard deviation (SD) from two independent repeats. b, c Time-of-addition experiment of arbidol. Three experimental groups (Full-time, Entry, and Post-entry) were set up as described in the Supplementary Methods. At 16 h p.i., virus yield in the cell supernatant was quantified by qRT-PCR (b), and the expression of NP in infected cells was analyzed by western blots (c). […] The co-localization of virions with EEs or LEs was analyzed by immunofluorescence assays as described in the Supplementary Methods. e The portion of virions that co-localized with EEs or ELs in each group (n > 150 cells) was quantified by Image J. f Representative confocal microscopic images of virions (red) and LAMP1^+ ELs (green) in each group. The nuclei (blue) were stained with Hoechst 33258 dye. White arrows: virions co-localized with ELs; bars: 10 μm. For (b) and (e), statistical analysis was performed using a one-way analysis of variance (ANOVA) with GraphPad Prism. For (d), statistical analysis was performed and calculated by unpaired two-tailed t test. *P < 0.05; ***P < 0.001; ns, not significant.
Arbidol was incubated with cells during the virus entry process (Entry), the post-entry stages (Post-entry), or the entire process of infection (Full-time) and progeny virus yield was quantified by qRT-PCR.
Viral RNA/DNA Extraction Kit; Takara, CAT No. 9766). Three microliter out of 30 μL total eluted RNA was used for cDNA synthesis with a PrimeScript RT Reagent Kit with gDNA Eraser (Takara, CAT No. RR047A). The qRT-PCR was performed with TB Green Premix Ex Taq II (Takara, CAT No. RR820A) on a StepOne Plus Real-time PCR system (AB). The primers used for qRT-PCR were RBD-qF1: […]
RBD-qR1:5’-[…]-3’. The experiments were performed in triplicate with two independent repeats and the data represent the mean ± SD from […]
Time-of-addition experiment […]
At 16 h p.i., virus production in the culture supernatants was quantified by qRT -PCR. […]

COVID-19 patients = tested on: COVID-19 patients; design: method as in PMID 32176772; conditions: retrospective study; cited from earlier work
SARS-CoV-2 virions = experiment: Intracellular trafficking: co-localization of virions with EEs or ELs by immunofluorescence; type: cell-based; conditions: arbidol 10 μM, MOI 5

## COC(=O)OCOc1c2n(ccc1=O)N([C@@H]1c3ccccc3SCc3c1ccc(F)c3F)[C@@H]1COCCN1C2=O [Baloxavir, Baloxavir marboxil]
SARS-CoV-2 [1]; ref 11 (Choy et al.)
  inhibition of SARS-CoV-2 in vitro (in words): failed to inhibit
SARS-CoV-2 [2]; Vero E6 cells
  anti-SARS-CoV-2 activity (in words): failed to block SARS-CoV-2 infection
SARS-CoV-2 [2]; at 50 μM, Vero E6 cells, 48 h p.i.
  inhibition of SARS-CoV-2 infection: ~ 29%

## [H]/N=C(\N)N[C@H]1C=C(C(=O)O)O[C@@H]([C@H](OC)[C@H](O)CO)[C@@H]1NC(C)=O [Laninamivir]
[3]
  CC50 at 24 h: > 100 µM
SARS-CoV-2 [2]
  EC50: > 30 µM
SARS-CoV-2 [2]; Vero E6 cells
  anti-SARS-CoV-2 activity (in words): did not exhibit anti-SARS-CoV-2 activity

## CCC(CC)[C@H](NC(C)=O)[C@@H]1[C@H](O)[C@@H](C(=O)O)C[C@H]1N=C(N)N.O.O.O [Peramivir, Peramivir Trihydrate]
SARS-CoV-2 [2]; Vero E6 cells
  anti-SARS-CoV-2 activity (in words): did not exhibit anti-SARS-CoV-2 activity

## CC(=O)N[C@H]1[C@H]([C@H](O)[C@H](O)CO)OC(C(=O)O)=C[C@@H]1N=C(N)N [Zanamivir]
SARS-CoV
  inhibition of SARS-CoV (in words): ineffective
[3]
  CC50 at 24 h: > 100 µM
SARS-CoV-2 [2]
  EC50: > 100 µM
SARS-CoV-2 [2]; Vero E6 cells
  anti-SARS-CoV-2 activity (in words): did not exhibit anti-SARS-CoV-2 activity

## CCOC(=O)c1c(CSc2ccccc2)n(C)c2cc(Br)c(O)c(CN(C)C)c12 [arbidol, Arbidol hydrochloride]
SARS-CoV-2 binding
  portion of unbound virions, % of the control group: 156%
Influenza viruses
  EC50: 2.5 to 20 µM
[4]
  Cmax: ~4.1 µM
SARS-CoV-2 [5]; Severe acute respiratory syndrome coronavirus 2, 16 h, read-out: inhibition rate of virus yield, Post-entry
  inhibition at 10 µM: ~55%
SARS-CoV-2 [5]; arbidol 10 μM during virus entry, MOI 0.05, 16 h p.i.
  inhibition of virus yield, Entry: ~ 75%
SARS-CoV-2 [6]
  viral NP expression and CPE due to SARS-CoV-2: substantially reduced
SARS-CoV-2 NP expression; Entry stage
  expression level of viral NP (NP/GAPDH), % of the DMSO group, Entry: 41%
SARS-CoV-2 NP expression; Full-time
  expression level of viral NP (NP/GAPDH), % of the DMSO group, Full-time: 13%
SARS-CoV-2 NP expression; Post-entry stage
  expression level of viral NP (NP/GAPDH), % of the DMSO group, Post-entry: 61%
COVID-19 patients
  discharging rate and mortality rate of COVID-19 patients (in words): tendency to improve the discharging rate and decrease the mortality rate
SARS-CoV-2 virions; 30 min p.i., DMSO 24.0%
  virions co-localized with EEs: 21.4%
SARS-CoV-2 virions; 60 min p.i., DMSO 5.1%
  virions co-localized with EEs: 4.1%
SARS-CoV-2 virions; 60 min p.i., DMSO 18.3%, P < 0.05
  virions co-localized with ELs: 22.4%
SARS-CoV-2 virions; 90 min p.i., DMSO 3.2%
  virions co-localized with EEs: 2.8%
SARS-CoV-2 virions; 90 min p.i., DMSO ~13.5%, P < 0.001
  virions co-localized with ELs: ~ 23.6%

## NC(=O)c1nc(F)c[nH]c1=O [favipiravir]
SARS-CoV-2 [1]
  efficacy against SARS-CoV-2 in vitro (in words): showed a certain efficacy
